Patent EP3212201B1, “NUCLEOSIDE KINASE INHIBITORS” (BCI Pharma, priority 2014, dated 2016)

Experiments:
Test in all cases: FRET-based coupled-enzyme protein kinase inhibition assay
Type in all cases: biochemical
Conditions in all cases: compound at 10 µM, 1% DMSO
RPS6KB1 (p70S6K) = RPS6KB1 (p70S6K) (Homo sapiens, UniProt P23443)
How it was run: (§1)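 Inhibition was quantified ratiometrically, as coumarin over fluorescein emission following 400 nm excitation, on a doubly labeled peptide whose cleavage by development reagent requires it to remain unphosphorylated. Kinase reactions ran 60 min at room temperature with ATP at apparent Km.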

MAP2K1 (MEK1) = MAP2K1 (MEK1) (Homo sapiens, UniProt Q02750)
Chain of MAP2K1 (MEK1) (Q02750 whole entry, species assumed): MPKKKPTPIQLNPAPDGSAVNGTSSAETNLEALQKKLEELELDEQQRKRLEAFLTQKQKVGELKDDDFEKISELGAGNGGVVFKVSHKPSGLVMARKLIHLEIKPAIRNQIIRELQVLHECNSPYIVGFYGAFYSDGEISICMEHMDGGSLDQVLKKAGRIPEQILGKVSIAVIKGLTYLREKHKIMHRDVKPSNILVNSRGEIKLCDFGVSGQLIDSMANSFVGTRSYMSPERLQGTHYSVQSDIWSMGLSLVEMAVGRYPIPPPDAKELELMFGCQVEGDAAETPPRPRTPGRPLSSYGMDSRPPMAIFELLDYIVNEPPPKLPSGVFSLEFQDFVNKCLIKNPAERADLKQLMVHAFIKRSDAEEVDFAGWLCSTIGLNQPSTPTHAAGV
How it was run: as §1

MET (cMet) = MET (cMet) (Homo sapiens, UniProt P08581)
Chain of MET (cMet) (P08581 25-1390): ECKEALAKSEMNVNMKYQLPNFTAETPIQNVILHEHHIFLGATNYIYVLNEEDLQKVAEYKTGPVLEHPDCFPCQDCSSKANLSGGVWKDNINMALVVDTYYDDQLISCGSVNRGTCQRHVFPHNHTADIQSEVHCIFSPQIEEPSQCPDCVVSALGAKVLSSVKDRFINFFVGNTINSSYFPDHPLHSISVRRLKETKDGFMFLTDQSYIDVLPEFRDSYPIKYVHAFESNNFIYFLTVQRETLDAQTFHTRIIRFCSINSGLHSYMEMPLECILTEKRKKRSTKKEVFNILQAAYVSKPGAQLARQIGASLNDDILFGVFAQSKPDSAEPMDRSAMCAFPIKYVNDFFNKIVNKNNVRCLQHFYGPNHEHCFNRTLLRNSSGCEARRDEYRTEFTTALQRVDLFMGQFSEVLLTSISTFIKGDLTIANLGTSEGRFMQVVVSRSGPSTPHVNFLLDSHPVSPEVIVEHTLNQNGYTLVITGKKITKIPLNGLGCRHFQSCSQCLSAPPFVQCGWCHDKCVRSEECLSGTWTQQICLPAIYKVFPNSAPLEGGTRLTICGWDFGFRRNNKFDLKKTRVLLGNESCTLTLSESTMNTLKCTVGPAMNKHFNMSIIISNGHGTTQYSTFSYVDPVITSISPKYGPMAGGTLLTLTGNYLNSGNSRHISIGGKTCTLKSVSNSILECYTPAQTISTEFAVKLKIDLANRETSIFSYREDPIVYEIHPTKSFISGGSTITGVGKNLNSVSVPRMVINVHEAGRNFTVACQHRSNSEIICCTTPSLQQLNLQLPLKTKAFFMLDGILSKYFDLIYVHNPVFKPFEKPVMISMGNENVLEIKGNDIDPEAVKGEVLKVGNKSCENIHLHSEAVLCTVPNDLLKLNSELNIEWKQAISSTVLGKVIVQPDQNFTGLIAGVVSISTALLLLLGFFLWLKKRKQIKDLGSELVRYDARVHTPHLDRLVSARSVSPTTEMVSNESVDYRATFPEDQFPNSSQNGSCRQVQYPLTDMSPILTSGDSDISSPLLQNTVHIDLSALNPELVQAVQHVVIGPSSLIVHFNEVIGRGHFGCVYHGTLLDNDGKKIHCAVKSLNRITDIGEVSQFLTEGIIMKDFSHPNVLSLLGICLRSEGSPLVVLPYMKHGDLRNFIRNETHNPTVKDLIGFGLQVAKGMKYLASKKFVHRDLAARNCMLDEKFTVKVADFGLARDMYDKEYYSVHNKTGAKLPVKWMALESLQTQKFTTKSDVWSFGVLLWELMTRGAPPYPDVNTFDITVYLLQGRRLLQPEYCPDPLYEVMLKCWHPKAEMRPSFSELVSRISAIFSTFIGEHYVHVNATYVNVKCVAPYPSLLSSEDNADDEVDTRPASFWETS
How it was run: as §1

ERBB2 (HER2) = ERBB2 (HER2) (Homo sapiens, UniProt P04626)
Chain of ERBB2 (HER2) (P04626 23-1255, species assumed): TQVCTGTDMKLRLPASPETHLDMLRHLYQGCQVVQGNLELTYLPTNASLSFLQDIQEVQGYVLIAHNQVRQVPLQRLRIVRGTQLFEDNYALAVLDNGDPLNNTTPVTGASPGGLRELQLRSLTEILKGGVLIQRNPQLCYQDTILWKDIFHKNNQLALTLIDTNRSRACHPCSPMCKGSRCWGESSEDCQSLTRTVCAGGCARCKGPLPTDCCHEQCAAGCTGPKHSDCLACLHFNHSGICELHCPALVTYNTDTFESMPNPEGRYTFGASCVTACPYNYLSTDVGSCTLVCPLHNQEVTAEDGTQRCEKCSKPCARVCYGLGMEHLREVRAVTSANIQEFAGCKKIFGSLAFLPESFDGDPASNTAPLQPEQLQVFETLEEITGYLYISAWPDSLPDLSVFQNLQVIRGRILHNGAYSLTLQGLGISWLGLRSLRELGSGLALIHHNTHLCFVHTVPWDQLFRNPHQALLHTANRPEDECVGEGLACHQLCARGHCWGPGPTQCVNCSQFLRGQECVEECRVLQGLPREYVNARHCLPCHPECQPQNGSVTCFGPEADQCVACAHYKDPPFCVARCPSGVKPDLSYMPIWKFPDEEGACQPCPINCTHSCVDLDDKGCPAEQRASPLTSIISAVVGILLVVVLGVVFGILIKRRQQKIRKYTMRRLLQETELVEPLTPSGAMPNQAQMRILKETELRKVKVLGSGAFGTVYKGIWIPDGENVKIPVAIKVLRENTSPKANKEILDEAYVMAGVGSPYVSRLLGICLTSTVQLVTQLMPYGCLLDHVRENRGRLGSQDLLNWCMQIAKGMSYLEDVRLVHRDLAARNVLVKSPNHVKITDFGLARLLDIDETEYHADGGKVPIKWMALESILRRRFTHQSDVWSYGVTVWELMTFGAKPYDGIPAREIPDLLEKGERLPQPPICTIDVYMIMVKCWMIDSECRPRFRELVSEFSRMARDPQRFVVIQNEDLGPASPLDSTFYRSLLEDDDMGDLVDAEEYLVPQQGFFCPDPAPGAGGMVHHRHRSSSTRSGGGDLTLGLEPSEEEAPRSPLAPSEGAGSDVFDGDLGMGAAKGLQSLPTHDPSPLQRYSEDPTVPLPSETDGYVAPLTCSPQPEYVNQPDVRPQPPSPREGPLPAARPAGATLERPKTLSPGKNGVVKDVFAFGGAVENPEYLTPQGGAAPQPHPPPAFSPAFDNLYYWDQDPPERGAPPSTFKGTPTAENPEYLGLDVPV
How it was run: as §1

CSNK2A1 (CK2 alpha 1) = CSNK2A1 (CK2 alpha 1) (Homo sapiens, UniProt P68400)
How it was run: as §1

NEK1 = molecular target: T1, NEK1 (Homo sapiens, UniProt Q96PY6)
T1 sequence (Q96PY6 1-1258): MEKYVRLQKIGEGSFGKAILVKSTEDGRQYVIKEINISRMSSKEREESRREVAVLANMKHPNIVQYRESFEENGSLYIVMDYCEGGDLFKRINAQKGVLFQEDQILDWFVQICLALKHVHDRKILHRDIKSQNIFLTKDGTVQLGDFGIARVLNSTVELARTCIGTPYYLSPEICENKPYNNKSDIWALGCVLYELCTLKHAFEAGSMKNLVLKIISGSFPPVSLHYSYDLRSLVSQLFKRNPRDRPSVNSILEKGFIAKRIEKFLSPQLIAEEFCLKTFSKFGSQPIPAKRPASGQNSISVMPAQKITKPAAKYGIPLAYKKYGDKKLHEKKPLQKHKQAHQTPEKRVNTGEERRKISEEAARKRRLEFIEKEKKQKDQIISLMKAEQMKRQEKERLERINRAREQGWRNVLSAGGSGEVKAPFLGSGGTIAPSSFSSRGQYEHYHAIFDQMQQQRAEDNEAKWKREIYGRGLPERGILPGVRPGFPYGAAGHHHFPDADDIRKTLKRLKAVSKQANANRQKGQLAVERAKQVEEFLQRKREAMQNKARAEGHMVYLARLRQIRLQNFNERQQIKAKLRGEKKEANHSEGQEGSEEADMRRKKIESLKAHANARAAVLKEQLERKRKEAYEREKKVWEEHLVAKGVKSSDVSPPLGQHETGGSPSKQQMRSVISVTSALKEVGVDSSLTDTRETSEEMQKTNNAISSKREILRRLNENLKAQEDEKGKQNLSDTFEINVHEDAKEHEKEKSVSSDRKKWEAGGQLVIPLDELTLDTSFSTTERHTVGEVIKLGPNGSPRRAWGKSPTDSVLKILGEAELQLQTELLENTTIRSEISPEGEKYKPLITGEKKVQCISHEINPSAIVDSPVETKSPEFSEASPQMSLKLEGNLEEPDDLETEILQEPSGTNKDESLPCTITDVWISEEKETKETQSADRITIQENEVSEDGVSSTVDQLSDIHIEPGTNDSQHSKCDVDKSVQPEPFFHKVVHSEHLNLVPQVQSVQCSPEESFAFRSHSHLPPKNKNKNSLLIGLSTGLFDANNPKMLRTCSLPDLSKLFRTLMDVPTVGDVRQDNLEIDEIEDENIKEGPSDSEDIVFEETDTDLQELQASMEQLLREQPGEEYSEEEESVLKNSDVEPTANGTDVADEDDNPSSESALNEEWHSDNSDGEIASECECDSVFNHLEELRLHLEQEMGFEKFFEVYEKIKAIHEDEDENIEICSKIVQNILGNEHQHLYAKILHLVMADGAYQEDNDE
How it was run: as §1

MAPK1 (ERK2) = MAPK1 (ERK2) (Homo sapiens, UniProt P28482)
Chain of MAPK1 (ERK2) (P28482 whole entry, species assumed): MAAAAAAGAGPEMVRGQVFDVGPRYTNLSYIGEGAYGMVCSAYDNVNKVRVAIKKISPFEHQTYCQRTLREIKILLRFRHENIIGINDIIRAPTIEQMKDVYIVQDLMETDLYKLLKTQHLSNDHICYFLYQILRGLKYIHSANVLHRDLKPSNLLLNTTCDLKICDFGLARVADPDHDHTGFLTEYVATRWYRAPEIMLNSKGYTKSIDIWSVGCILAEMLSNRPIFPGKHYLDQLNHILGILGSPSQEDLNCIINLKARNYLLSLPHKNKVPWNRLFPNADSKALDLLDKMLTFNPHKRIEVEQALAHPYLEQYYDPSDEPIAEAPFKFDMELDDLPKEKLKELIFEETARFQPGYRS
How it was run: as §1

SRC = SRC (Homo sapiens, UniProt P12931)
Chain of SRC (P12931 whole entry, species assumed): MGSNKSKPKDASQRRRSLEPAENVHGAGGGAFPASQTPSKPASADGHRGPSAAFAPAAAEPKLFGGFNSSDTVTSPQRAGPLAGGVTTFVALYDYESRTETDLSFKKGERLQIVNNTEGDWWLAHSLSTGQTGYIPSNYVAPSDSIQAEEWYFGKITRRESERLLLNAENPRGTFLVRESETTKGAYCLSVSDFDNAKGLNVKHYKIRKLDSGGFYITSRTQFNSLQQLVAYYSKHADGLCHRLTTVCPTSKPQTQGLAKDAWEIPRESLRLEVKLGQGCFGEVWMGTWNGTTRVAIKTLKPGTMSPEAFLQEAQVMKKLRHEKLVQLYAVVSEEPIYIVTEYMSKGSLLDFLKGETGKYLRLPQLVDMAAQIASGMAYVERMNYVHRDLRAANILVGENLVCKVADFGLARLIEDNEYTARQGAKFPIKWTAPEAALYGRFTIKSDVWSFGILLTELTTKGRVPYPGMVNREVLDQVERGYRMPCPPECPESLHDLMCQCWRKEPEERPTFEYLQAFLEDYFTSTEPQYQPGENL
How it was run: as §1

MAPK14 (p38 alpha) = MAPK14 (p38 alpha) (Homo sapiens, UniProt Q16539)
Chain of MAPK14 (p38 alpha) (Q16539 whole entry, species assumed): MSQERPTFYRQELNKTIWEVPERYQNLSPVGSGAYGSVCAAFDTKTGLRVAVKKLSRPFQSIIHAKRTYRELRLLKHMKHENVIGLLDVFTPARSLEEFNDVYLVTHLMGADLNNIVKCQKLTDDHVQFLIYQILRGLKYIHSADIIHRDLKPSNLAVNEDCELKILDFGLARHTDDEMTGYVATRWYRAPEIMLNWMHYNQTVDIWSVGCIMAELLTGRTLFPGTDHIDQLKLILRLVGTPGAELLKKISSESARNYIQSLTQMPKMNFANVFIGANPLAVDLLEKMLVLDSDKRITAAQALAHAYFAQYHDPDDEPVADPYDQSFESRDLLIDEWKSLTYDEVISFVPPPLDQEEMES
How it was run: as §1

FGFR1 = FGFR1 (Homo sapiens, UniProt P11362)
How it was run: as §1

Chain of RPS6KB1 (p70S6K) (P23443 whole entry, species assumed): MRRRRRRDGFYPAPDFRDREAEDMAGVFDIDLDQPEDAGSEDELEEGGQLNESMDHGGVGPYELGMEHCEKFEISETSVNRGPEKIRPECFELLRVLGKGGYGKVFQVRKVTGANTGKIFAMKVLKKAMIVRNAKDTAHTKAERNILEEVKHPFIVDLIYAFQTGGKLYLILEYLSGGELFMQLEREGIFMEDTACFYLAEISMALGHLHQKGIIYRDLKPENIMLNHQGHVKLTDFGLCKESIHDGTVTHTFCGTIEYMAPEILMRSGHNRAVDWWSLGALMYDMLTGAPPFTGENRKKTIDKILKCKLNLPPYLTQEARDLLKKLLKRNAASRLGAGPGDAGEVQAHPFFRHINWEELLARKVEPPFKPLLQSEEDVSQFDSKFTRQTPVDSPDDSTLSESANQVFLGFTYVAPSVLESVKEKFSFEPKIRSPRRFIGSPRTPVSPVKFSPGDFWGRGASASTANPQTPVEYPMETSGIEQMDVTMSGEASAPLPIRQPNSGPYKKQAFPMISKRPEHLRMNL

| Compound | inhibition at 10 µM (RPS6KB1 (p70S6K)) | inhibition at 10 µM (MAP2K1 (MEK1)) | inhibition at 10 µM (MET (cMet)) | inhibition at 10 µM (ERBB2 (HER2)) | inhibition at 10 µM (CSNK2A1 (CK2 alpha 1)) | inhibition at 10 µM (NEK1) | inhibition at 10 µM (MAPK1 (ERK2)) | inhibition at 10 µM (SRC) | inhibition at 10 µM (MAPK14 (p38 alpha)) | inhibition at 10 µM (FGFR1) |
| --- | --- | --- | --- | --- | --- | --- | --- | --- | --- | --- |
| CC(C)N1CCC(NC(=O)OC[C@H]2O[C@@H](n3cnc4c(N)ncnc43)[C@H](O)[C@@H]2O)CC1 [Compound C19] | 3% | -2% | 2% | -7% | 5% | -2% | 7% | -1% | -1% | 6% |
| Nc1ncnc2c1ncn2[C@@H]1O[C@H](COC(=O)N2CCN(Cc3ccccc3)CC2CO)[C@@H](O)[C@H]1O (stereo partly shown) [Compound C13] | 10% | 1% | 0% | 3% | 3% | 4% | 10% | 29% | 0% | 5% |
| C[C@@H](NC(=O)OC[C@H]1O[C@@H](n2cnc3c(N)ncnc32)[C@H](O)[C@@H]1O)c1ccc(Cl)cc1 [Compound C4] | 22% | 4% | 3% | 2% | 8% | 4% | 8% | 33% | -1% | 6% |
| Nc1ncnc2c1ncn2[C@@H]1O[C@H](COC(=O)NC[C@H](O)CO)[C@@H](O)[C@H]1O [Compound C8] | 11% | 10% | -16% | -7% | 5% | -5% | 16% | -13% | -3% | 26% |
| Nc1ncnc2c1ncn2[C@@H]1O[C@H](COC(=O)N[C@@H]2CCN(Cc3ccccc3)C2)[C@@H](O)[C@H]1O [Compound C10] | 5% | 0% | -1% | -5% | 2% | 11% | 8% | 25% | 6% | 20% |
| Nc1ncnc2c1ncn2[C@@H]1O[C@H](COC(=O)N2CCN(C(=O)N3CCOCC3)CC2)[C@@H](O)[C@H]1O [Compound C89] | 0% | -2% | -4% | -7% | 8% | -7% | 9% | 8% | -2% | 16% |
| Nc1ncnc2c1ncn2[C@@H]1O[C@H](COC(=O)N2CCS(=O)(=O)CC2)[C@@H](O)[C@H]1O [Compound C100] | 13% | 5% | -3% | 2% | 5% | -3% | 13% | 8% | -4% | 0% |
| Nc1ncnc2c1ncn2[C@@H]1O[C@H](COC(=O)N2CCN(CCc3ccccc3)CC2)[C@@H](O)[C@H]1O [Compound C26] | 8% | 4% | -5% | 8% | 3% | -7% | 11% | 29% | -6% | 9% |
| CN(C)CCNC(=O)OC[C@H]1O[C@@H](n2cnc3c(N)ncnc32)[C@H](O)[C@@H]1O [Compound C85] | -1% | -3% | -12% | -13% | 7% | 1% | 8% | 17% | 0% | 4% |
| CS(=O)(=O)N1CC2(CCN(C(=O)OC[C@H]3O[C@@H](n4cnc5c(N)ncnc54)[C@H](O)[C@@H]3O)CC2)c2ccccc21 [Compound C98] | 0% | 4% | -12% | 5% | 2% | 0% | 16% | 58% | 20% | 9% |
| N#CCCN1CCN(C(=O)OC[C@H]2O[C@@H](n3cnc4c(N)ncnc43)[C@H](O)[C@@H]2O)CC1 [Compound C70] | 6% | 3% | -2% | 0% | 4% | 6% | 16% | 8% | 4% | 1% |
| Nc1ncnc2c1ncn2[C@@H]1O[C@H](COC(=O)NCCCc2nc3ccccc3[nH]2)[C@@H](O)[C@H]1O [Compound C1] | 15% | 11% | 0% | 5% | -5% | -4% | 7% | 46% | -3% | 21% |
| CN1CCN(CCNC(=O)OC[C@H]2O[C@@H](n3cnc4c(N)ncnc43)[C@H](O)[C@@H]2O)CC1 [Compound C46] | 14% | -1% | 8% | -14% | 5% | 7% | 9% | 17% | 5% | 9% |
| Nc1ncnc2c1ncn2[C@@H]1O[C@H](COC(=O)N2CCC(Cc3ccc(F)cc3)C2)[C@@H](O)[C@H]1O (stereo partly shown) [Compound C66] | 16% | -1% | -14% | 11% | -5% | -5% | 9% | 38% | 18% | 13% |
| Nc1ncnc2c1ncn2[C@@H]1O[C@H](COC(=O)N2CCC[C@H]2CO)[C@@H](O)[C@H]1O [Compound C9] | 3% | -3% | -11% | -19% | 5% | -3% | 11% | 16% | -4% | 3% |
| Nc1ncnc2c1ncn2[C@@H]1O[C@H](COC(=O)NCCN2CCCC2=O)[C@@H](O)[C@H]1O [Compound C22] | 0% | -3% | 1% | -9% | 2% | -2% | 9% | 12% | -1% | 0% |
